Active and inactive are the calls of the source.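 How the source made its calls: active means growth-inhibition EC50 no more than tenfold above the top tested dose; inconclusive means flat fit between 30% and 70% inhibition, or unreliable fit; inactive means EC50 more than tenfold above the top tested dose.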

The subject of this assay is E. coli NEB5alpha growth, BacTiter-Glo luminescence, 4 h. The assay can be described thus: Escherichia coli growth inhibition, dose response, counter-screen for MEX-5/POS-1 RNA-binding inhibitor project, luminescence, NEB5alpha (AID 1959;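 further: pUC19-transformed ampicillin-resistant cells grown in LB with ampicillin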). (The purpose of a counterscreen is to sort out artefacts and off-target activity.)
In general, EC50 refers to the concentration needed to bring the measured effect to its halfway point. For `NC(=O)Cn1cc(C=C2C(=O)NC(=O)NC2=O)c2ccccc21`, the EC50 is > 11 µM (inactive).

With `CCc1ccc(S(=O)(=O)Nc2cc(SCC(=O)O)c(O)c3ccccc23)cc1`, the EC50 is > 11 µM (inactive).

Take `Cc1ccc(Cl)c2c(N=Nc3ccccc3)c(O)[nH]c12`: the EC50 is > 11 µM (inactive).

In the case of `CCCCCCCCCCCCCCCCn1cc[n+](C)c1`, the EC50 was 9.41 µM.

On to `Cc1ccn2c(=O)nc(SCC(=O)Nc3cc(C)on3)nc2c1`, for which the EC50 is > 11 µM (inactive).

As for `N#CC(c1nc2ccccc2nc1OCCO)S(=O)(=O)c1ccccc1` (stereo unspecified), the EC50 was > 11 µM (inactive).

As to `Cc1ccccc1NC(=O)CN1C(=O)S/C(=C\c2ccc(-c3cc(C(=O)O)ccc3C)o2)C1=O`, the EC50 was > 11 µM (inactive).

`Cc1ccc(C)n1-c1ccc(C(=O)O)cc1`: the EC50 was > 11 µM (inactive).

With `FC(F)(F)c1ccc2c(c1)C1C=CCC1C(c1ccncc1)N2` (stereo unspecified), the EC50 is > 11 µM (inactive).

Regarding `COc1cc(OC)c(C2C(C#N)=C(N)OC3=C2C(=O)CC(C)(C)C3)cc1OC` (stereo unspecified), the EC50 is > 11 µM (inactive).

`CCN(CC)c1ccc(N=Cc2c(O)n(-c3ccc(OC)cc3)c(=O)[nH]c2=O)cc1`: the EC50 is > 11 µM (inactive).

With `CCOC(=O)c1c(-n2c(C)cc(/C=C3/C(=O)NC(=O)N(CC)C3=O)c2C)sc2c1CCCC2`, the EC50 was > 11 µM (inactive).

In the case of `COCCN1CCC(CNCc2c(C(=O)N3CCCCC3)nc3c(C)cccn23)C1` (stereo unspecified), the EC50 is > 11 µM (inactive).

Take `O=C(c1coc(=O)c(Br)c1)N1CCCc2ccccc21`: the EC50 is > 11 µM (inactive).

On to `O=C(N=C1SC2CS(=O)(=O)CC2N1c1ccccc1)C1CC1` (stereo unspecified), for which the EC50 was > 11 µM (inactive).

As to `COc1cccc(-n2c(O)c(C=Nc3c(C)n(C)n(-c4ccccc4)c3=O)c(=O)[nH]c2=O)c1`, the EC50 is > 11 µM (inactive).

Regarding `CCn1c(C)nc2cc(N)ccc21`, the EC50 was > 11 µM (inactive).

`Cc1c2ccccc2nc2c(F)c(NC(C)C)c(F)c(F)c12`: the EC50 was > 11 µM (inactive).

Turning to `CC(=O)Nc1ccc(N=Cc2nc(-c3ccc(C)cc3)oc2O)cc1`, the EC50 is > 11 µM (inactive).

`CCOC(=O)N1CCN(/C=C(\C#N)c2nc3ccccc3s2)CC1`: the EC50 is > 11 µM (inactive).

For `COc1cc(C2C(C#N)=C(N)Oc3n[nH]c(-c4cccnc4)c32)cc(Br)c1O` (stereo unspecified), the EC50 was > 11 µM (inactive).

With `CCOn1c(=O)c(-c2cc3ccccc3o2)[n+]([O-])c2ccccc21`, the EC50 was > 11 µM (inactive).

As for `O=[N+]([O-])c1ccc(Nc2ccccc2O)c2nonc12`, the EC50 is > 11 µM (inactive).

On to `CCCCC1=CC2=CC(=O)C(C)(OC(=O)CC)C(=O)C2=CO1` (stereo unspecified), for which the EC50 is > 11 µM (inactive).

As for `O=C(/C=C/N1CCOCC1)c1ccc(-c2ccccc2)cc1`, the EC50 was > 11 µM (inactive).

For the compound `CCC(C)n1c(=N)c(C#N)cc2c(=O)n3cccc(C)c3nc21` (stereo unspecified), the EC50 is > 11 µM (inactive).

On to `CN(C)c1ccc(N=Cc2nc(-c3ccccc3)oc2O)cc1`, for which the EC50 was > 11 µM (inactive).

For `O=[N+]([O-])c1cc(-c2ccc(/C=N/n3cnnc3)o2)ccc1Cl`, the EC50 was > 11 µM (inactive).

Regarding `COC(=O)C1CSc2[nH]c(=O)sc2C1c1ccccc1` (stereo unspecified), the EC50 was > 11 µM (inactive).

As for `Cc1cc(C(=O)O)ccc1-n1c(C)cc(C=C2C(=O)c3ccccc3C2=O)c1C`, the EC50 was > 11 µM (inactive).

`CCn1c(=N)c(S(=O)(=O)c2ccc(F)cc2)cc2c(=O)n3ccccc3nc21`: the EC50 was > 11 µM (inactive).

On to `COc1cc([C@H](Cc2ccccc2)NC(C)=O)oc(=O)c1`, for which the EC50 was > 11 µM (inactive).

Turning to `NS(=O)(=O)c1ccc(NC(=O)COC(=O)c2cn(-c3ccccc3)nc2-c2ccc(F)cc2)cc1`, the EC50 is > 11 µM (inactive).

As for `CN1CCc2c(sc(NC(=O)c3ccc4ccccc4c3)c2C(N)=O)C1`, the EC50 is > 11 µM (inactive).

Take `CC(=O)C1=C(c2ccccc2)N(C(C)=O)n2c(C)nnc2S1`: the EC50 is > 11 µM (inactive).

In the case of `CCOC(=O)N1CCN(CC(=O)c2ccc(O)cc2O)CC1`, the EC50 is > 11 µM (inactive).

In the case of `O=C(/C=C/c1ccc(O)c(O)c1)OC(Cc1ccc(O)c(O)c1)C(=O)O` (stereo unspecified), the EC50 was > 11 µM (inactive).

`N#C/C(=C/c1cccn1-c1cccc(C(=O)O)c1)c1ccc(Cl)cc1`: the EC50 is > 11 µM (inactive).

For the compound `Nc1ccc2nc(-c3ccccc3)c(-c3ccccc3)nc2c1`, the EC50 was > 11 µM (inactive).

Take `CCn1nc(C)c(/C=C2\CCCC3=C2OC(N)=C(C#N)C3c2c(C)nn(CC)c2C)c1C` (stereo unspecified): the EC50 was > 11 µM (inactive).

Consider `CC(C)OC(=O)c1nn2c(C(F)(F)F)cc(-c3ccc(Br)o3)nc2c1Br`, for which the EC50 was > 11 µM (inactive).

For the compound `CCC(=O)OC1(C)C(=O)C=C2C=C(c3ccsc3)OC=C2C1=O` (stereo unspecified), the EC50 was > 11 µM (inactive).

`CNc1ccc2nc3ccccc3[n+](C)c2c1`: the EC50 was > 11 µM (inactive).

With `COc1cc(C(=O)NC(c2ccccc2)c2ccccc2)cc(OC)c1C`, the EC50 is > 11 µM (inactive).

With `O=C(O)c1ccc2nc(-c3ccco3)c(-c3ccco3)nc2c1`, the EC50 was > 11 µM (inactive).

On to `O=C(C1=NN(c2ccccc2)C2C(=O)N(c3ccccc3Cl)C(=O)C12)c1ccccc1` (stereo unspecified), for which the EC50 is > 11 µM (inactive).

As to `COc1ccc2c(c1)c1nc3ccccc3nc1n2CCCN1C(=O)c2ccccc2C1=O`, the EC50 was > 11 µM (inactive).

For `O=[N+]([O-])c1ccc(N=Nc2ncc[nH]2)cc1`, the EC50 is > 11 µM (inactive).

With `CCCc1c(O)nc(SCC(=O)N2CCCCC2)[nH]c1=O`, the EC50 is > 11 µM (inactive).

Take `Cc1ccc(C2c3sc(=O)[nH]c3SC3C(=O)NC(=O)C32)cc1` (stereo unspecified): the EC50 was > 11 µM (inactive).

For `CC(=O)N1CCN(c2ccc(N=Cc3c(O)n(Cc4ccccc4)c(=O)[nH]c3=O)cc2)CC1`, the EC50 was > 11 µM (inactive).

As for `CCc1ccc(/C=C2\SC(=S)N(CCCC(=O)Nc3ccccn3)C2=O)cc1`, the EC50 is > 11 µM (inactive).

Turning to `CCOc1ccc(N2C(=O)/C(=C/c3ccco3)C(=O)NC2=S)cc1`, the EC50 was > 11 µM (inactive).

As for `Cn1c(=O)[nH]c2cc(Cl)cnc21`, the EC50 was > 11 µM (inactive).

Take `O=C/C(=C\Nc1ccccn1)c1nc2ccccc2o1`: the EC50 is > 11 µM (inactive).

`COc1ccc(C2C(C#N)=C(N)OC3=C2C(=O)CCC3)cc1OC` (stereo unspecified): the EC50 was > 11 µM (inactive).

`CCCSc1nnc2nc3c(nn12)c1ccccc1n3C`: the EC50 was > 11 µM (inactive).

`N#CC(C#N)=Cc1ccc(-c2ccc(S(=O)(=O)N=C(N)N)cc2)o1`: the EC50 was > 11 µM (inactive).

In the case of `CCCSc1nnc(NC(=O)Nc2ccccc2)s1`, the EC50 is > 11 µM (inactive).

`Cc1ccc(S(=O)(=O)c2cc3c(=O)n4ccccc4nc3n(CCc3ccccc3)c2=N)cc1`: the EC50 was > 11 µM (inactive).

Take `CCOC(=O)C(C(=O)OCC)c1cc(Br)c2noc3c2c1C(=O)c1ccccc1-3`: the EC50 was > 11 µM (inactive).

In the case of `CCN(CC)c1ccc(N=Nc2ncn[nH]2)cc1`, the EC50 was > 11 µM (inactive).

Turning to `O=C1CSC(=S)N1/N=C/c1ccc(Cl)c([N+](=O)[O-])c1`, the EC50 is > 11 µM (inactive).

As for `O=C(N/N=C/c1c(O)n(Cc2ccco2)c(=O)[nH]c1=O)c1ccccc1O`, the EC50 was > 11 µM (inactive).

As for `CCCn1c(O)c(CN2CCCC(C)C2)c(C)c(C#N)c1=O` (stereo unspecified), the EC50 is > 11 µM (inactive).

Regarding `CCOC(=O)c1cnc(-n2nc(C)cc2C)nc1NNc1nc(C)cc(C)n1`, the EC50 was > 11 µM (inactive).

In the case of `CCCCC1=CC2=CC(=O)C(C)(OC(=O)CCC(=O)OC)C(=O)C2=CO1` (stereo unspecified), the EC50 was > 11 µM (inactive).

On to `Cc1ccc(/C=C/C(=O)c2ccc(N3CCOCC3)cc2)s1`, for which the EC50 is > 11 µM (inactive).

Take `Brc1ccc(C2=CC(c3ccco3)n3ncnc3N2)cc1` (stereo unspecified): the EC50 was > 11 µM (inactive).

Turning to `CC1=N/C(=C/c2ccco2)C(=O)O1`, the EC50 was > 11 µM (inactive).

Turning to `COc1ccc2nc3cc(Cl)ccc3c(Nc3cc(CN4CCCC4)c(O)c(CN4CCCC4)c3)c2n1`, the EC50 is > 11 µM (inactive).

Take `O=C(N[C@H]1CP(=O)(Oc2ccccc2)O[C@H](COCc2ccccc2)[C@H]1O)C(Cl)(Cl)Cl` (stereo partly specified): the EC50 is > 11 µM (inactive).

As for `CCn1c(SCC(=O)Nc2cc(C)on2)nnc1-c1ccc(OC)cc1`, the EC50 was > 11 µM (inactive).

As to `CCCCC1=CC2=CC(=O)C(C)(OC(=O)c3ccco3)C(=O)C2=CO1` (stereo unspecified), the EC50 is > 11 µM (inactive).

`COc1ccc(C2C(C#N)=C(N)OC3=C2C(=O)CC(C)(C)C3)cc1Cn1cc([N+](=O)[O-])cn1` (stereo unspecified): the EC50 is > 11 µM (inactive).

Take `CCCCCCCCOc1ccc(C2OC34CCCCC3C(C#N)(C#N)C2(C#N)C(=N)O4)cc1` (stereo unspecified): the EC50 is > 11 µM (inactive).

As for `Cc1cc(C=C2C(=O)N(C)C(=S)N(C)C2=O)c(C)n1C1CCCC1`, the EC50 was > 11 µM (inactive).

Take `CCc1ccc(NC(=O)/C(C#N)=C/c2cc3ccc(C)cc3nc2N2CCOCC2)cc1`: the EC50 was > 11 µM (inactive).

For the compound `CC(C)(C)OC(=O)NCCCC1=CC2=CC(=O)C(C)(OC(=O)c3ccc(Cl)nc3)C(=O)C2=CO1` (stereo unspecified), the EC50 is > 11 µM (inactive).

With `Cc1cc(C=O)c(C)n1-c1ccc(Cl)c(C(=O)O)c1`, the EC50 is > 11 µM (inactive).

Regarding `Cc1ccc(/C=C2/C(=O)NC(=O)N(CCc3ccc(F)cc3)C2=O)o1`, the EC50 is > 11 µM (inactive).

For `CCOC(=O)c1ccc(CC(=O)c2ccc(O)c(O)c2O)o1`, the EC50 is > 11 µM (inactive).

For the compound `COc1ccc(NC(=O)c2ccc(NCCCN3CCOCC3)c([N+](=O)[O-])c2)cc1`, the EC50 was > 11 µM (inactive).

Consider `Cn1c(=O)c2[nH]c(N=NNc3ccccc3F)nc2n(C)c1=O`, for which the EC50 is > 11 µM (inactive).

In the case of `CN(CC(=O)NCc1ccccn1)S(=O)(=O)c1ccc(Br)cc1`, the EC50 was > 11 µM (inactive).

With `Cc1ccc2[nH]c3c(c2c1)CN(C(=O)CN1CCN(C(=O)c2ccco2)CC1)CC3`, the EC50 was > 11 µM (inactive).

Values taken from PubChem BioAssay AID1959 (Broad Institute, 2009).
